≈ marks a conversion by molar mass, not a printed value. Read-outs that look alike come from different tables or passages of the source.
Key:
E. coli LZ3111 = test: Antibacterial activity, MIC, quinolone resistant strain (Table 2); type: cell-based; conditions: Escherichia coli, LZ3111, read-out: MIC LZ3111
Procedure, shortened: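 Broth microdilution. Read-out: MIC in μg/mL, taken as lowest concentration with no macroscopically visible growth.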

[1] = tested on: Escherichia coli (E. coli) BAS849; test: Antibacterial activity, microbroth dilution MIC (Table 1); type: cell-based
Procedure, shortened: (§1)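 MIC (μg/mL) is taken as the lowest concentration with no macroscopically visible growth. Strains tested by microbroth dilution: Gram-positive S. aureus 29213, control Gram-negative E. coli 25922, and super-sensitive E. coli BAS849.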

[2] = tested on: Staphylococcus aureus (S. aureus) 29213; test: as above; type: cell-based
Procedure, shortened: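 Values are MICs (μg/mL): the smallest drug amount at which macroscopically visible bacterial growth is absent under assay conditions, from a microdilution method in broth.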

[3] = tested on: Pseudomonas aeruginosa (P. aeruginosa) 27853; test: Antibacterial activity, MIC (Table 5); type: cell-based
Procedure, shortened: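 Microbroth dilution; MIC (μg/mL) = lowest concentration with no macroscopically visible growth.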

[4] = tested on: Klebsiella pneumoniae (K. pneumoniae) 35657; test: Antibacterial activity, MIC (Table 4); type: cell-based
Procedure, shortened: (§2)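 Compounds are serially diluted in microbroth, bacteria are grown under the test conditions, and growth is then inspected macroscopically. The lowest concentration without visible growth is reported as the MIC (μg/mL).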

[5] = tested on: Acinetobacter baumannii (A. baumannii) BAA747; test: Antibacterial activity, MIC (Table 4); type: cell-based
Procedure, shortened: as §2

A. baumannii MXX2240 = test: Antibacterial activity, MIC, resistant strain (Table 4); type: cell-based; conditions: Acinetobacter baumannii
Procedure, shortened: as §2

K. pneumoniae MXX1232 = test: as above; type: cell-based; conditions: Klebsiella pneumoniae
Procedure, shortened: as §2

E. coli 25922 = test: Antibacterial activity, microbroth dilution MIC (Table 1); type: cell-based, Escherichia coli
Procedure, shortened: as §1

[6] = microbroth dilution, super sensitive Gram-negative E. coli BAS849, read-out: MIC, BAS849
[7] = microbroth dilution, Gram-positive S. aureus 29213, read-out: MIC, 29213
[8] = P. aeruginosa 27853, read-out: MIC, 27853
[9] = K. pneumoniae 35657, read-out: MIC, 35657
[10] = A. baumannii BAA747, read-out: MIC, BAA747
[11] = MXX2240, resistant A. baumannii MMX2240, multi-drug resistant clinical isolate, read-out: MIC, MMX2240
[12] = MXX1232, resistant K. pneumoniae MMX1232, multi-drug resistant clinical isolate, read-out: MIC, MMX1232
[13] = Escherichia coli, microbroth dilution, control Gram-negative E. coli 25922 strain, read-out: MIC, 25922
[14] = MXX2240, read-out: MIC, MMX2240
[15] = MXX1232, read-out: MIC, MMX1232
[16] = Escherichia coli, 25922, read-out: MIC, 25922

| Structure (SMILES) | MIC (E. coli LZ3111) [µg/mL] | MIC [1, 6] [µg/mL] | MIC [2, 7] [µg/mL] | MIC [3, 8] [µg/mL] | MIC [4, 9] [µg/mL] | MIC [5, 10] [µg/mL] | MIC (A. baumannii MXX2240; [11]) [µg/mL] | MIC (K. pneumoniae MXX1232; [12]) [µg/mL] | MIC (E. coli 25922; [13]) [µg/mL] | MIC ([1]; read-out: MIC, BAS849) [µg/mL] | MIC ([2]; read-out: MIC, 29213) [µg/mL] | MIC ([3]; read-out: MIC, 27853) [µg/mL] | MIC ([4]; read-out: MIC, 35657) [µg/mL] | MIC ([5]; BAA747, read-out: MIC, BAA747) [µg/mL] | MIC (A. baumannii MXX2240; [14]) [µg/mL] | MIC (K. pneumoniae MXX1232; [15]) [µg/mL] | MIC (E. coli 25922; [16]) [µg/mL] |
| --- | --- | --- | --- | --- | --- | --- | --- | --- | --- | --- | --- | --- | --- | --- | --- | --- | --- |
| CCc1c(-c2ccc3c(ccn3-c3ccc(C(F)(F)F)cc3)c2)[nH]c(=O)c(C(=O)O)c1O [Cpd 437, 5-ethyl-4-hydroxy-2-oxo-6-(1-(4-(trifluoromethyl)phenyl)-1H-indol-5-yl)-1,2-dihydropyridine-3-carboxylic acid] | 12.5 to 150 (≈ 28.3 to 339 µM) | < 1 | 3.5 to 12.5 (≈ 7.91 to 28.3 µM) | 12.5 to 150 (≈ 28.3 to 339 µM) | 12.5 to 150 (≈ 28.3 to 339 µM) | 12.5 to 150 (≈ 28.3 to 339 µM) | 12.5 to 150 (≈ 28.3 to 339 µM) | 12.5 to 150 (≈ 28.3 to 339 µM) | 12.5 to 150 (≈ 28.3 to 339 µM) |  |  |  |  |  |  |  |  |
| CCc1c(-c2ccc3c(ccn3-c3ccc(F)cc3)c2)[nH]c(=O)c(C(=O)O)c1O [Cpd 438, 5-ethyl-6-(1-(4-fluorophenyl)-1H-indol-5-yl)-4-hydroxy-2-oxo-1,2-dihydropyridine-3-carboxylic acid] | 12.5 to 150 (≈ 31.9 to 382 µM) | < 1 | < 1 | 12.5 to 150 (≈ 31.9 to 382 µM) | 12.5 to 150 (≈ 31.9 to 382 µM) | 12.5 to 150 (≈ 31.9 to 382 µM) | 12.5 to 150 (≈ 31.9 to 382 µM) | 12.5 to 150 (≈ 31.9 to 382 µM) | 12.5 to 150 (≈ 31.9 to 382 µM) |  |  |  |  |  |  |  |  |
| CCc1c(-c2ccc3c(ccn3-c3cccc(N4CCCC4)c3)c2)[nH]c(=O)c(C(=O)O)c1O [Cpd 439, 5-ethyl-4-hydroxy-2-oxo-6-(1-(3-(pyrrolidin-1-yl)phenyl)-1H-indol-5-yl)-1,2-dihydropyridine-3-carboxylic acid] | 12.5 to 150 (≈ 28.2 to 338 µM) | 1 to 3.5 (≈ 2.25 to 7.89 µM) | 3.5 to 12.5 (≈ 7.89 to 28.2 µM) | 12.5 to 150 (≈ 28.2 to 338 µM) | 12.5 to 150 (≈ 28.2 to 338 µM) | 12.5 to 150 (≈ 28.2 to 338 µM) | 12.5 to 150 (≈ 28.2 to 338 µM) | 12.5 to 150 (≈ 28.2 to 338 µM) | 12.5 to 150 (≈ 28.2 to 338 µM) |  |  |  |  |  |  |  |  |
| CCc1c(-c2ccc3c(ccn3-c3ccc(N4CCCC4)cc3)c2)[nH]c(=O)c(C(=O)O)c1O [Cpd 440, 5-ethyl-4-hydroxy-2-oxo-6-(1-(4-(pyrrolidin-1-yl)phenyl)-1H-indol-5-yl)-1,2-dihydropyridine-3-carboxylic acid] | 12.5 to 150 (≈ 28.2 to 338 µM) | 12.5 to 150 (≈ 28.2 to 338 µM) | 12.5 to 150 (≈ 28.2 to 338 µM) | 12.5 to 150 (≈ 28.2 to 338 µM) | 12.5 to 150 (≈ 28.2 to 338 µM) | 12.5 to 150 (≈ 28.2 to 338 µM) | 12.5 to 150 (≈ 28.2 to 338 µM) | 12.5 to 150 (≈ 28.2 to 338 µM) | 12.5 to 150 (≈ 28.2 to 338 µM) |  |  |  |  |  |  |  |  |
| CCc1c(-c2ccc3cc(CN(C)C)[nH]c3c2)[nH]c(=O)c(C(=O)O)c1O.Cl [Cpd 441, 6-(2-((dimethylamino)methyl)-1H-indol-6-yl)-5-ethyl-4-hydroxy-2-oxo-1,2-dihydropyridine-3-carboxylic acid hydrochloride] | 12.5 to 150 | < 1 | 1 to 3.5 | 12.5 to 150 | < 1 | 1 to 3.5 | 3.5 to 12.5 | 12.5 to 150 | < 1 |  |  |  |  |  |  |  |  |
| CCNCc1cc2ccc(-c3[nH]c(=O)c(C(=O)O)c(O)c3CC)cc2[nH]1.Cl [Cpd 442, 5-ethyl-6-(2-((ethylamino)methyl)-1H-indol-6-yl)-4-hydroxy-2-oxo-1,2-dihydropyridine-3-carboxylic acid hydrochloride] | 12.5 to 150 | 1 to 3.5 | 12.5 to 150 | 12.5 to 150 | 3.5 to 12.5 | 12.5 to 150 | 12.5 to 150 | 12.5 to 150 | 3.5 to 12.5 |  |  |  |  |  |  |  |  |
| CCc1c(-c2ccc3cc(CNC(C)CC)[nH]c3c2)[nH]c(=O)c(C(=O)O)c1O.Cl (stereo not drawn) [Cpd 443, 6-(2-((sec-butylamino)methyl)-1H-indol-6-yl)-5-ethyl-4-hydroxy-2-oxo-1,2-dihydropyridine-3-carboxylic acid hydrochloride] | 3.5 to 12.5 | 1 to 3.5 | 3.5 to 12.5 | 12.5 to 150 | 3.5 to 12.5 | 12.5 to 150 | 3.5 to 12.5 | 12.5 to 150 | 3.5 to 12.5 |  |  |  |  |  |  |  |  |
| CCNCc1cc2ccc(-c3[nH]c(=O)c(C(=O)O)c(O)c3C)cc2[nH]1.Cl [Cpd 444, 6-(2-((ethylamino)methyl)-1H-indol-6-yl)-4-hydroxy-5-methyl-2-oxo-1,2-dihydropyridine-3-carboxylic acid hydrochloride] | 12.5 to 150 | 12.5 to 150 | 12.5 to 150 | 12.5 to 150 | 12.5 to 150 | 12.5 to 150 | 12.5 to 150 | 12.5 to 150 | 12.5 to 150 |  |  |  |  |  |  |  |  |
| CCc1c(-c2ccc3c4c([nH]c3c2)CNCC4)[nH]c(=O)c(C(=O)O)c1O [Cpd 445, 5-ethyl-4-hydroxy-2-oxo-6-(2,3,4,9-tetrahydro-1H-pyrido[3,4-b]indol-7-yl)-1,2-dihydropyridine-3-carboxylic acid] | 12.5 to 150 (≈ 35.4 to 424 µM) | 3.5 to 12.5 (≈ 9.9 to 35.4 µM) | 12.5 to 150 (≈ 35.4 to 424 µM) | 12.5 to 150 (≈ 35.4 to 424 µM) | 3.5 to 12.5 (≈ 9.9 to 35.4 µM) | 12.5 to 150 (≈ 35.4 to 424 µM) | 12.5 to 150 (≈ 35.4 to 424 µM) | 12.5 to 150 (≈ 35.4 to 424 µM) | 12.5 to 150 (≈ 35.4 to 424 µM) |  |  |  |  |  |  |  |  |
| CCc1c(-c2ccc3c4c([nH]c3c2)CN(C)CC4)[nH]c(=O)c(C(=O)O)c1O [Cpd 446, 5-ethyl-4-(hydroxy)-6-(2-methyl-2,3,4,9-tetrahydro-1H-pyrido[3,4-b]indol-7-yl)-2-oxo-1,2-dihydropyridine-3-carboxylic acid] | 1 to 3.5 (≈ 2.72 to 9.53 µM) |  |  |  |  |  |  |  |  | < 1 | 12.5 to 150 (≈ 34 to 408 µM) | 3.5 to 12.5 (≈ 9.53 to 34 µM) | < 1 | 3.5 to 12.5 (≈ 9.53 to 34 µM) | 12.5 to 150 (≈ 34 to 408 µM) | 12.5 to 150 (≈ 34 to 408 µM) | 1 to 3.5 (≈ 2.72 to 9.53 µM) |
| CCc1c(-c2ccc3c4c([nH]c3c2)CN(CC)CC4)[nH]c(=O)c(C(=O)O)c1O [Cpd 447, 5-ethyl-6-(2-ethyl-2,3,4,9-tetrahydro-1H-pyrido[3,4-b]indol-7-yl)-4-hydroxy-2-oxo-1,2-dihydropyridine-3-carboxylic acid] | 3.5 to 12.5 (≈ 9.18 to 32.8 µM) |  |  |  |  |  |  |  |  | < 1 | 12.5 to 150 (≈ 32.8 to 393 µM) | 12.5 to 150 (≈ 32.8 to 393 µM) | < 1 | 3.5 to 12.5 (≈ 9.18 to 32.8 µM) | 12.5 to 150 (≈ 32.8 to 393 µM) | 12.5 to 150 (≈ 32.8 to 393 µM) | < 1 |
| CCCN1CCc2c([nH]c3cc(-c4[nH]c(=O)c(C(=O)O)c(O)c4CC)ccc23)C1 [Cpd 448, 5-ethyl-4-hydroxy-2-oxo-6-(2-propyl-2,3,4,9-tetrahydro-1H-pyrido[3,4-b]indol-7-yl)-1,2-dihydropyridine-3-carboxylic acid] | 3.5 to 12.5 (≈ 8.85 to 31.6 µM) |  |  |  |  |  |  |  |  | < 1 | 12.5 to 150 (≈ 31.6 to 379 µM) | 12.5 to 150 (≈ 31.6 to 379 µM) | 1 to 3.5 (≈ 2.53 to 8.85 µM) | 3.5 to 12.5 (≈ 8.85 to 31.6 µM) | 3.5 to 12.5 (≈ 8.85 to 31.6 µM) | 12.5 to 150 (≈ 31.6 to 379 µM) | < 1 |
